The values that follow come from paper PMC10127945 (Nature chemical biology, 2022).

For one series, the system named is SARS-CoV-2. Type of series: cell-based, SARS-CoV-2 (USA-WA1/2020).
Series [1] has as its target SARS-CoV-2 envelope (E) protein viroporin ion channel (Severe acute respiratory syndrome coronavirus 2, UniProt P0DTC4). Type of series: cell-based.
Series [2] in a line: Stability in aqueous solution. Type of series: physicochemical. The conditions noted are these: neutral pH.
Series [3] deals with ACE2/SARS-CoV-2 Spike protein binding (Homo sapiens, UniProt Q9BYF1). Type of series: cell-based.
A further series concerns the target TMPRSS2 (Homo sapiens, UniProt O15393). Nature of the series: Biotin-switch assay for SNO-TMPRSS2. Type of series: cell-based. The conditions noted are these: 100 μM SNOC, 20 minutes, HeLa-ACE2 cells.
The next series addresses ACE2 (Homo sapiens, UniProt Q9BYF1). Briefly: Biotin-switch assay for SNO-ACE2 in HeLa-ACE2 cells. Type of series: cell-based. The conditions noted are these: 100 μM SNOC.
The next series concerns the target SARS-CoV-2 Spike protein (Severe acute respiratory syndrome coronavirus 2, UniProt P0DTC2). Type of series: biochemical.

Chain of ACE2 (Q9BYF1 18-805): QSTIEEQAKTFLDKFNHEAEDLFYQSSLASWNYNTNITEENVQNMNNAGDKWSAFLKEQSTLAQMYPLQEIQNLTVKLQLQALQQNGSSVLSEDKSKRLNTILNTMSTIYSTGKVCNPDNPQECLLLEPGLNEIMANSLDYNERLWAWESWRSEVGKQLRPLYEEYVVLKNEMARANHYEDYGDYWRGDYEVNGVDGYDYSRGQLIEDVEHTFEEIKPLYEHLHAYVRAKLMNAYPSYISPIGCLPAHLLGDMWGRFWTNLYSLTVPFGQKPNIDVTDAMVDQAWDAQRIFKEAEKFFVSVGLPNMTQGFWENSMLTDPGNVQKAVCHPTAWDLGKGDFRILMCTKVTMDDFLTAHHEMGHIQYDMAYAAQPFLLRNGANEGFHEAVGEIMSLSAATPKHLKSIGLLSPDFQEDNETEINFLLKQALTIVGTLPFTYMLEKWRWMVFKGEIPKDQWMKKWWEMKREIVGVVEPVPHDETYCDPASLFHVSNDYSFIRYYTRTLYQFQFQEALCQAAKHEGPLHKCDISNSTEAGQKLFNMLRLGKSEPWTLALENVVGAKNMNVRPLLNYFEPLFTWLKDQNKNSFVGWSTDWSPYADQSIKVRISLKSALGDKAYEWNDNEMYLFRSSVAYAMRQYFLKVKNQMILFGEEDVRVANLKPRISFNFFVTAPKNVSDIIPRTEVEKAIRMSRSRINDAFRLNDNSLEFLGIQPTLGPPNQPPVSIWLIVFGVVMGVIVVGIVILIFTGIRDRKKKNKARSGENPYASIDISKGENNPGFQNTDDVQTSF
Chain of ACE2/SARS-CoV-2 Spike protein binding (Q9BYF1 18-805 limits assumed): as the sequence (Q9BYF1 18-805) above
Chain of SARS-CoV-2 envelope (E) protein viroporin ion channel (P0DTC4 whole entry): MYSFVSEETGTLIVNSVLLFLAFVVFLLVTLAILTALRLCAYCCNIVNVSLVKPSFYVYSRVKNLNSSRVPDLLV
Chain of TMPRSS2 (O15393 whole entry): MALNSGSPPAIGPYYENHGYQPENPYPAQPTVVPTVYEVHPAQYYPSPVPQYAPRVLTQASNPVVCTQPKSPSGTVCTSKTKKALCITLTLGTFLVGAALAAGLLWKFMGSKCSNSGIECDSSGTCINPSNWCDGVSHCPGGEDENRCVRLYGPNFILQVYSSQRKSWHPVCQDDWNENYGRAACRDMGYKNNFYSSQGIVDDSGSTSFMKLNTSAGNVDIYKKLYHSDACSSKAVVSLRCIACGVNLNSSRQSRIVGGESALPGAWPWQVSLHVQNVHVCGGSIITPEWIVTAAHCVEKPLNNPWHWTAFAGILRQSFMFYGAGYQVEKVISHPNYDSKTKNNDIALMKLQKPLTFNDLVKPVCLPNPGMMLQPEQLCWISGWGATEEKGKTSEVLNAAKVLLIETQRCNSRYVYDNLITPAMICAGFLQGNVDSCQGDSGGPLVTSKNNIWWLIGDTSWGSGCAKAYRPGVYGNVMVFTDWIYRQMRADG

Consider `NC12CC3CC(CC(C3)C1)C2` [amantadine], for which the “efficacy against live SARS-CoV-2 infection” value in the series with SARS-CoV-2 is “no efficacy”.

As to `CC12CC3CC(C)(C1)CC(N)(C3)C2` [memantine], in series [1], the “inhibition of E protein voltage-dependent K+ current” value was “inhibited”. Moreover, in the series on SARS-CoV-2, the “efficacy against live SARS-CoV-2 infection” value was “no efficacy”.

As to S-nitrosocysteine [SNOC], in series [2], the “time for NO to dissipate” value was below 5 min. Further, in series [3], the “binding of purified S protein to HeLa-ACE2 cells” value is given as “significantly decreased binding”. Moreover, the “S-nitrosylation of TMPRSS2” value at TMPRSS2 is on record as “could be S-nitrosylated”. Besides, the “stability (persistence) of SNO-ACE2 formation” value on ACE2 is “at least 12 h”. Further, the “S-nitrosylation of ACE2” value on ACE2 (20 minutes) was “could be S-nitrosylated”. Further, the “S-nitrosylation of Spike protein” value on SARS-CoV-2 Spike protein is listed as “Lack of S-nitrosylation”.
